Assay results: patent US8071810B2, “C5a receptor antagonists” (Jerini AG, priority 2005, dated 2011)

Biological target: T1, human C5a receptor (CD88) (Homo sapiens, UniProt P21730)
T1 construct: expressed in transfected cells; host or cells: rat basophilic leukemia (RBL) cells, stably transfected
T1 sequence (P21730 1-350): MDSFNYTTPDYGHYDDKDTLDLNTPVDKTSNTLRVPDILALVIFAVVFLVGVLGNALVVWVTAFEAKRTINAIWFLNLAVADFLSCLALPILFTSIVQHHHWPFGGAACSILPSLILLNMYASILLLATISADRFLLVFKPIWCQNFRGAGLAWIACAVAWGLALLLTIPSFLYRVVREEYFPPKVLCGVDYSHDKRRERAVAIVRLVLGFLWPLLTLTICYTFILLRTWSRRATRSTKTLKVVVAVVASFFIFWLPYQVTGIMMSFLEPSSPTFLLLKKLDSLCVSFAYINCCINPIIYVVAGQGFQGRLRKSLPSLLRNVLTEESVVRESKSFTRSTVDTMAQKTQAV
Assay: C5a induced enzyme (glucosaminidase) release assay in RBL cells expressing the human C5a receptor (Example 28)
Assay type: cell-based
Conditions: inhibition of C5a induced enzyme release, RBL cells with human C5aR; read-out: Activity-range (antagonistic activity, IC50 enzyme release)
How it was run: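 Rat basophilic leukemia (RBL) cells expressing human C5a receptor, at 2×10^6 cells/ml, primed with cytochalasin B, then incubated with test compound 10 min at 37 °C.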

Structure (SMILES)	IC50 [nM]
CCc1c(N)cc(Cl)c(CC)c1NC(=O)N(c1ccc(OC)cc1CO)[C@@H](C)c1ccc(Cl)cc1 [compound 109, (S)-3-(3-amino-5-chloro-2,6-diethyl-phenyl)-1-[1-(4-chloro-phenyl)-ethyl]-1-(2-hydroxymethyl-4-methoxy-phenyl)-urea]	200 to 5000
CCc1ccc(N(Cc2ccc(-n3cccn3)cc2)C(=O)Nc2c(CC)c(N)cc(Cl)c2CC)cc1 [compound 110, 3-(3-amino-5-chloro-2,6-diethyl-phenyl)-1-(4-ethyl-phenyl)-1-(4-pyrazol-1-yl-benzyl)-urea]	200 to 5000
CCc1ccc(N(C(=O)Nc2c(C(C)(C)C)ccc(N)c2C)[C@@H](C)c2ccc(Cl)cc2)cc1 [compound 111, (S)-3-(3-amino-6-tert-butyl-2-methyl-phenyl)-1-[1-(4-chloro-phenyl)-ethyl]-1-(4-ethyl-phenyl)-urea]	200 to 5000
CCc1ccc(N(C(=O)Nc2c(CC)c(N)cc(Cl)c2CC)C(C[N+](=O)[O-])c2ccccc2)cc1 (stereo not drawn) [compound 112, 3-(3-amino-5-chloro-2,6-diethyl-phenyl)-1-(4-ethyl-phenyl)-1-(2-nitro-1-phenyl-ethyl)-urea]	200 to 5000
CCc1ccc(N(Cc2ccc(C#N)cc2)C(=O)Nc2c(CC)c(N)cc(Cl)c2CC)cc1 [compound 113, 3-(3-amino-5-chloro-2,6-diethyl-phenyl)-1-(4-cyano-benzyl)-1-(4-ethyl-phenyl)-urea]	200 to 5000
CCc1c(N)cc(Cl)c(CC)c1NC(=O)N(Cc1ccc(Cl)cc1)c1ccc(OC)c(OC)c1 [compound 114, 3-(3-amino-5-chloro-2,6-diethyl-phenyl)-1-(4-chloro-benzyl)-1-(3,4-dimethoxy-phenyl)-urea]	200 to 5000
CCc1c(N)cc(Cl)c(CC)c1NC(=O)N(Cc1ccc(Cl)cc1)c1ccc(OC)c2ccccc12 [compound 115, 3-(3-amino-5-chloro-2,6-diethyl-phenyl)-1-(4-chloro-benzyl)-1-(4-methoxy-naphthaline-1-yl)-urea]	60 to 200
CCc1ccc(N(Cc2ccc(N)cc2)C(=O)Nc2c(CC)c(N)cc(Cl)c2CC)cc1 [compound 116, 1-(4-amino-benzyl)-3-(3-amino-5-chloro-2,6-diethyl-phenyl)-1-(4-ethyl-phenyl)-urea]	200 to 5000
CCc1c(N)cc(Cl)c(CC)c1NC(=O)N(Cc1ccc(Cl)cc1)c1ccc(OC(F)F)cc1 [compound 117, 3-(3-amino-5-chloro-2,6-diethyl-phenyl)-1-(4-chloro-benzyl)-1-(4-difluoromethoxy-phenyl)-urea]	200 to 5000
CCc1ccc(N(Cc2ccc3c(c2)ncn3C)C(=O)Nc2c(CC)c(N)cc(Cl)c2CC)cc1 [compound 118, 3-(3-amino-5-chloro-2,6-diethyl-phenyl)-1-(4-ethyl-phenyl)-1-(1-methyl-1H-benzoimidazol-5-ylmethyl)-urea]	200 to 5000
CCc1ccc(N)c(CC)c1NC(=O)N(Cc1ccc(Cl)cc1)c1ccc(NC)cc1 [compound 119, 3-(3-amino-2,6-diethyl-phenyl)-1-(4-chloro-benzyl)-1-(4-methylamino-phenyl)-urea]	60 to 200
CCc1ccc(N(Cc2cnc(N(C)C)nc2)C(=O)Nc2c(CC)c(N)cc(Cl)c2CC)cc1 [compound 121, 3-(3-amino-5-chloro-2,6-diethyl-phenyl)-1-(2-dimethylamino-pyrimidin-e5-ylmethyl)-1-(4-ethyl-phenyl)-urea]	200 to 5000
CCc1ccc(N(C(=O)Nc2c(CC)c(N)cc(Cl)c2CC)C(C)c2ccc(C)nc2)cc1 (stereo not drawn) [compound 123, 3-(3-amino-5-chloro-2,6-diethyl-phenyl)-1-(4-ethyl-phenyl)-1-[1-(6-methyl-pyridin-3-yl)-ethyl]-urea]	60 to 200
CCc1c(N)cc(Cl)c(CC)c1NC(=O)N(Cc1ccc(C)nc1)c1ccc(OC)cc1F [compound 124, 3-(3-amino-5-chloro-2,6-diethyl-phenyl)-1-(2-fluoro-4-methoxy-phenyl)-1-(6-methyl-pyridin-3-ylmethyl)-urea]	200 to 5000
CCc1c(N)cc(Cl)c(CC)c1NC(=O)N(Cc1ccc(C)nc1)c1ccc(CC(F)(F)F)cc1 [compound 126, 3-(3-amino-5-chloro-2,6-diethyl-phenyl)-1-(6-methyl-pyridin-3-ylmethyl)-1-[4-(2,2,2-trifluoro-ethyl)-phenyl]-urea]	60 to 200
CCc1c(N)cc(Cl)c(CC)c1NC(=O)N(Cc1ccc(Cl)cc1)c1ccc(N(C)C)cc1 [compound 127, 3-(3-amino-5-chloro-2,6-diethyl-phenyl)-1-(4-chloro-benzyl)-1-(4-dimethylamino-phenyl)-urea]	200 to 5000
CCc1c(N)cc(Cl)c(CC)c1NC(=O)N(Cc1ccccc1)c1ccc(N(C)C)cc1 [compound 128, 3-(3-amino-5-chloro-2,6-diethyl-phenyl)-1-benzyl-1-(4-dimethylamino-phenyl)-urea]	200 to 5000
CCc1c(N)cc(Cl)c(CC)c1NC(=O)N(Cc1ccccc1)c1ccc(NC)cc1 [compound 129, 3-(3-amino-5-chloro-2,6-diethyl-phenyl)-1-benzyl-1-(4-methylamino-phenyl)-urea]	60 to 200
CCc1c(N)cc(Cl)c(CC)c1NC(=O)N(Cc1ccc(Cl)cc1)c1ccc(OC)c2nc(C)c(C)nc12 [compound 130, 3-(3-amino-5-chloro-2,6-diethyl-phenyl)-1-(4-chloro-benzyl)-1-(8-methoxy-2,3-dimethyl-chinoxalin-5-yl)-urea]	200 to 5000
CCc1c(Cl)cc(N=O)c(CC)c1NC(=O)N(c1ccc(NC)cc1)[C@@H](C)c1ccc(Cl)cc1 [compound 133, (S)-3-(3-chloro-2,6-diethyl-5-nitroso-phenyl)-1-[1-(4-chloro-phenyl)-ethyl]-1-(4-methylamino-phenyl)-urea]	< 60
COc1ccc(CN(C(=O)Nc2c(C(C)C)cccc2C(C)C)c2ccc(C(C)C)cc2)cc1 [compound 134, 3-(2,6-diisopropyl-phenyl)-1-(4-isopropyl-phenyl)-1-(4-methoxy-benzyl)-urea]	200 to 5000
CCNc1ccc(N(Cc2ccc(Cl)cc2)C(=O)Nc2c(CC)c(N)cc(Cl)c2CC)cc1 [compound 136, 3-(3-amino-5-chloro-2,6-diethyl-phenyl)-1-(4-chloro-benzyl)-1-(4-ethylamino-phenyl)-urea]	< 60
CCc1c(N)cc(Cl)c(CC)c1NC(=O)N(c1ccc(NC)cc1)C(C)c1ccc2c(c1)ncn2C (stereo not drawn) [compound 138, 3-(3-amino-5-chloro-2,6-diethyl-phenyl)-1-(4-methylamino-phenyl)-1-[1-(1-methyl-1H-benzoimidazol-5-yl)-ethyl]-urea]	60 to 200
CCc1c(N)cc(Cl)c(CC)c1NC(=O)N(Cc1ccc(Cl)cc1)c1ccc(NC)c2ccccc12 [compound 139, 3-(3-amino-5-chloro-2,6-diethyl-phenyl)-1-(4-chloro-benzyl)-1-(4-methylamino-naphthalin-1-yl)-urea]	200 to 5000
CCc1c(N)cc(Cl)c(CC)c1NC(=O)N(Cc1ccc(Cl)cc1)c1ccc(NC(C)=O)cc1 [compound 140, N-{4-[3-(3-amino-5-chloro-2,6-diethyl-phenyl)-1-(4-chloro-benzyl)-ureido]-phenyl}-acetamide]	200 to 5000
CCc1c(N)cc(Cl)c(CC)c1NC(=O)N(c1ccc2[nH]ccc2c1)[C@@H](C)c1ccc(Cl)cc1 [compound 141, (S)-3-(3-amino-5-chloro-2,6-diethyl-phenyl)-1-[1-(4-chloro-phenyl)-ethyl]-1-(1H-indol-5-yl)-urea]	< 60
CCNc1ccc(CC)c(NC(=O)N(Cc2ccc(OC)cc2)c2ccc(C(C)C)cc2)c1CC [compound 142, 3-(2,6-diethyl-3-ethylamino-phenyl)-1-(4-isopropyl-phenyl)-1-(4-methoxy-benzyl)-urea]	> 5000
